From US20050187188A1, “Methods for the treatment of a traumatic central nervous system injury” (Emory University, priority 2000, published 2005)
Entries after “also recorded” stand apart in the source; their conditions may differ.

How the values were obtained:
[1] = system: rats with medial frontal cortical contusions; experiment: Cerebral edema (brain tissue water content) after medial frontal cortex contusion, Example 1; type: in vivo, rat; conditions: 4 mg/kg in cyclodextrin, i.p. 1 h and s.c. 6 h post-injury; 2, 24 and 72 hours; compared to vehicle
Description: Contusions to the medical frontal cortex (MFC) using a pneumatic impactor device were generated. Animals were anesthetized by injection of Nembutal (50 mg/kg, i.p) and placed in a stereotaxic apparatus, with body core temperature being maintained with a homeothermic heating blanket system. Using aseptic techniques, a midline incision was made in the scalp, and the fascia retracted to expose the cranium. A centered, bilateral craniotomy was made 3 mm anterior to bregma using a 6 mm diameter trephan. After the removal of the bone, the tip of the impactor was moved to AP:3.0; ML:0.0, checked for adequate clearance, retracted to its elevated position and lowered 3.5 mm DV, so it penetrated the cortex 2 mm. The contusion was made at a velocity of 2.25 m/s with a brain contact time of 0.5 seconds. Following this procedure, the wound cavity was thoroughly cleaned and all bleeding stopped before the fascia and scalp, were sutured closed. In all experiments, the rats' group identity was coded with regard to surgery and treatment to prevent experimenter bias during behavioral testing and later histological examination.
These experimental solutions were then diluted 1:1 with sterile water for a final concentration of HBC of 22.5%.
Sprague-Dawley male rats, approximately 90 days of age at the time of surgery, were used. Rats were housed in individual cages, with a 12:12 light:dark cycle. Food and water were provided ad libitum throughout the experiment. Control rats received sham surgeries and the rest received medial frontal cortical contusions as described in the general methods. The sham-operated controls were given vehicle (cyclodextrin). […] Treatment began one hour after the contusion was produced. […] Subsequently, a second subcutaneous injection 6 hours post-injury for absorption that is more gradual. […]
At 2, 24, and 72 hours the rats were anesthetized, decapitated, and their brains removed quickly from the cranial cavity. […] The brain was placed on a pre-weighed dish and the total weight of the sample was measured. […]

IL-1β = IL-1β mRNA expression in brain tissue after contusion, real-time quantitative PCR; type: in vivo, rat
Excerpt: Neurosteroid injections were given at 1 hr and 6 hrs after the contusions, and continued once a day for up to 5 consecutive days post-injury.
Adult male SD rates received either bilateral prefrontal cortical contusions or sham surgeries. The neurosteroid injections were given at 1 hr and 6 hr after the contusions and continued once a day for up to 5 consecutive days post-injury. At 3 hr, 8 hr, 12 hr and 6 days post-injury, the rats were killed and their brains were processed for mRNA extraction. Expression of mRNA for IL-1β and TNFα were assessed using real-time quantitative PCR.

[2] = system: rats with bilateral contusions of the medial prefrontal cortex; experiment: Cell counts of Nissl-stained neurons (STR, GP, DMN, VMN), Example 6; type: in vivo, rat; conditions: 4 mg/kg in peanut oil
Description: (§1) Male Sprague-Dawley rats (300 g) were housed individually in wire cages and kept on a reverse light-dark cycle (0800-2000 h). Animals were assigned to one of four groups: (1) lesion (n=7); (2) lesion +3 days progesterone (LP3; n=7); (3) lesion +5 days progesterone (LP5; n=7); and (4) Sham (n=8). All procedures involving animals conformed to guidelines set forth in the Guide for the Care and Use of Laboratory Animals (U.S. Department of Health and Human Services, Pub no. 85-23, 1985) and were approved by the Emory University Institutional Animal Care and Use Committee.
Bilateral contusions of the medial prefrontal cortex were created by a pneumatic impactor device as previously described. Briefly, rats were given anesthetized with ketamine/xylazine (90 mg/kg; 10 mg/kg) and placed in a stereotaxic apparatus. A craniectomy (diameter 6 mm) was made over the midline of the prefrontal cortex with its center 1.5 mm AP to bregma. […]
Cell counts were done on an Olympus BH-2 microscope equipped with an eyepiece micrometer grid (sample area=40 μm^2 at ×400 magnification). […] Only cells with neuronal nuclei and intact membranes were counted as neurons.
(§2) Experienced individuals who were blind to treatment conditions of the study conducted all histological and behavioral analyses. All data were tested for normality and homoschedasticity before being analyzed by parametric analysis of variance (ANOVA). MWM results were analyzed using separate mixed-factorial (4 groups×5 days) analysis of variance (ANOVA) on each of the two 5-day testing periods (acquisition and retention respectively). Results of the BSN task were analyzed using the mixed-factorial ANOVA (4 groups×2 post-injury trials). […] Pearson r coefficients were calculated to determine whether significant correlations could be detected between histological (e.g., lesion size and cellular density) and behavioral parameters (e.g., acquisition and retention of the MWM task and measures of sensory neglect).

[3] = system: rats with bilateral contusions of the medial prefrontal cortex; experiment: Morris water maze task, Example 6; type: in vivo, rat
Description: as §1
Bilateral contusions of the medial prefrontal cortex were created by a pneumatic impactor device as previously described. Briefly, rats were given anesthetized with ketamine/xylazine (90 mg/kg; 10 mg/kg) and placed in a stereotaxic apparatus. A craniectomy (diameter 6 mm) was made over the midline of the prefrontal cortex with its center 1.5 mm AP to bregma. After removal of the bone, the tip of the impactor (diameter 5 mm) was moved to +3.0 mm AP; 1.0 mm ML (from bregma), and checked for adequate clearance. Trauma was produced by pneumatically activating the piston to impact −2.0 mm DV (from dura) at a velocity of 3 m/s with a brain contact time of 0.5 seconds.
Progesterone was dissolved in peanut oil (Sigma; 4 mg/kg) and injections were given at 1 and 6 hours post-injury and then once per day for either 3 or 5 consecutive days. Control animals received injections of vehicle at similar time-points. Animals were coded with regard to surgery and treatment to prevent experimenter bias during behavioral testing and histological examination.
as §2
Beginning one week after surgery, spatial learning ability was assessed in the Morris water maze (MWM) task described previously. […] Animals were placed in the pool (nose facing the pool-wall) at one of four randomly determined starting positions (e.g.: N, S, E, W). […] Swim speed measures were recorded daily in order to delineate motor dysfunction from learning impairment.

traumatic brain injury = experiment: Sticker removal task (tactile adhesive removal) dose response, Example 7; type: in vivo, rat
Excerpt: On the 7th and 27th days post-injury, the rats will be assessed on their responsivity to focal somatosensory stimuli by requiring them to remove sticky paper from their forelimbs. Pairs of circular adhesive papers will be attached to the distal-radial areas of each forelimb and the animal will be returned to its home cage while the investigator holds the forepaws apart and keeps them away from the rat's mouth. The rats' latencies to remove the stimuli with their mouth will be recorded. The maximum length of a “test” trial will be 2 minutes, with each rat receiving four trials with 2 minute intertrial intervals.
Surgery to induce a traumatic brain injury was performed as outlined in Example 1. Behavior testing using the Morris Water Maize was performed as outlined in Example 1 and the methods for the tactical adhesive removal were performed as outlined in Example 4.

ischemic injury = conditions: following ischemic injury in rats; cited from earlier work
[4] = system: blood-brain barrier (BBB); conditions: in vitro; macromolecules vs ions such as sodium; cited from earlier work
cell death = conditions: by attenuating release of inflammatory cytokines; cited from earlier work

CC(=O)[C@H]1CC[C@H]2[C@@H]3CCC4=CC(=O)CC[C@]4(C)[C@H]3CC[C@]12C [progesterone]
cerebral edema [1]: intermediate between injured controls and the allopregnanolone-treated injured rats | IL-1β mRNA expression (IL-1β; 3 hours and 6 days post-injury): reduced the expression of both IL-1β and TNFα | IL-1β mRNA expression (IL-1β; 8 hrs post-injury): but not progesterone, enhanced | injury-induced neuronal loss (STR, GP, DMN, VMN) ([2]; 3 days (LP3)): significant reduction of injury-induced neuronal loss in all brain regions examined | injury-induced neuronal loss (STR, GP, DMN, VMN) ([2]; 5 days (LP5)): significant reduction of injury-induced neuronal loss in all brain regions examined | neuronal loss in the VMN ([2]; 5 days (LP5)): more effective than 3 days at attenuating neuronal loss in the VMN; also recorded: significant reductions in cell loss of the VMN | spatial learning performance, initial 5-day acquisition phase ([3]; 4 mg/kg in peanut oil, 3 or 5 days, all injured groups): displayed deficits in spatial learning performance as compared to control animals | spatial learning performance, second 5-day trial block ([3]; 4 mg/kg in peanut oil, 5 days (LP5)): improved spatial learning performance | swim speed ([3]; 3 or 5 days, any day of testing): no between-group differences | thigmotaxic (wall-hugging) swim patterns ([3]; 5 days (LP5), last 2 days of the second phase of MWM testing): reduction of thigmotaxic behavior | sticker removal task (sensory neglect) (traumatic brain injury; high dose 32 mg/kg in cyclodextrin-containing carrier): degraded to lesion control levels | sticker removal task (sensory neglect) (traumatic brain injury; low dose 8 mg/kg in cyclodextrin-containing carrier): initially produce behavioral recovery | sticker removal task (sensory neglect) (traumatic brain injury; moderate dose 16 mg/kg in cyclodextrin-containing carrier): improved to sham levels by day 21 post-injury | cell damage and neurological deficit (ischemic injury): reduce cell damage and neurological deficit | permeability of the BBB [4]: reduce the permeability of the BBB to macromolecules, but not ions | cell death in vitro (cell death): prevent cell death in vitro
